In ChEMBL document CHEMBL4483862, “Open-source discovery of chemical leads for next-generation chemoprotective antimalarials” (2018):

Test system: Plasmodium berghei
Assay: Luciferase/luciferin-expressing antifolate-resistant parasites were used to infect a culture of HepG2 cells that were pre-incubated with compounds. Infected hepatocytes emit light due to the luciferase reaction. Assay results are presented as the percent inhibition of light emission compared to control. […]
Format: functional
Conditions: sporozoite; for IC90: read-out: LUCIFERASE INFECTION ASSAY - IC90

SMILES	IC90 [µM]	further results
CN(C)Cc1nc(O)c2c(n1)-c1ccccc1CC2(C)C	4.32	IC50 (PBLUC_HILL_SLOPE 13.2, PBLUC_R_SQUARED 0.272, read-out: LUCIFERASE INFECTION ASSAY - IC50): 3.66 µM
CCOCc1c(C(=O)NC2=C(C(=O)OCC)C(CC)=Nc3ccccc3N2)oc2ccccc12	8.81	IC50 (PBLUC_HILL_SLOPE 13.2, PBLUC_R_SQUARED 0.167, read-out: LUCIFERASE INFECTION ASSAY - IC50): 7.46 µM
O=C(Nc1ccccc1)Nc1cccc(C(F)(F)F)c1	4.4	IC50 (PBLUC_HILL_SLOPE 13.3, PBLUC_R_SQUARED 0.408, read-out: LUCIFERASE INFECTION ASSAY - IC50): 3.73 µM
C/C(=N\Nc1nc2ccccc2[nH]1)c1ccc(Cl)s1	> 10	IC50 (PBLUC_HILL_SLOPE 13.6, PBLUC_R_SQUARED 0.0664, read-out: LUCIFERASE INFECTION ASSAY - IC50): 9.32 µM
CN(Cc1ccccc1NC(=O)/C=C/c1cnn(-c2ccccc2)c1)C1CCCCC1	> 10	IC50 (PBLUC_HILL_SLOPE 13.5, PBLUC_R_SQUARED 0.731, read-out: LUCIFERASE INFECTION ASSAY - IC50): 8.68 µM
O=C1C=CC(=O)N1Cc1ccc2c(c1)OCO2	13.4	IC50 (PBLUC_HILL_SLOPE 13.6, PBLUC_R_SQUARED 0.619, read-out: LUCIFERASE INFECTION ASSAY - IC50): 11.4 µM
Cc1cc2nc3n(c2cc1C)C1(Nc2ccccc2-3)C(=O)Nc2ccccc21 (configuration not stated)	3.6	IC50 (PBLUC_HILL_SLOPE 13.5, PBLUC_R_SQUARED 0.192, read-out: LUCIFERASE INFECTION ASSAY - IC50): 3.06 µM
CCn1c(SCc2csc(N(C(C)=O)c3cccc(C)c3)n2)nc2ccccc2c1=O	> 10	IC50 (PBLUC_HILL_SLOPE 13.6, PBLUC_R_SQUARED 0.153, read-out: LUCIFERASE INFECTION ASSAY - IC50): > 10 µM
CS(=O)(=O)Nc1cccc(-c2cn3c(-c4cccc(OC(F)(F)F)c4)cnc3cn2)c1	> 7.36	IC50 (PBLUC_HILL_SLOPE 13.3, PBLUC_R_SQUARED 0.233, read-out: LUCIFERASE INFECTION ASSAY - IC50): 7.15 µM
CC(C)Cc1ccc(C(Nc2ccc3nnnn3n2)C(C)C)cc1 (configuration not stated)	3.82	IC50 (PBLUC_HILL_SLOPE 13.1, PBLUC_R_SQUARED 0.631, read-out: LUCIFERASE INFECTION ASSAY - IC50): 3.23 µM
O=C(CSCCc1nc(-c2ccc(Cl)cc2)cs1)N/N=C/c1ccccc1	3.43	IC50 (PBLUC_HILL_SLOPE 13.2, PBLUC_R_SQUARED 0.406, read-out: LUCIFERASE INFECTION ASSAY - IC50): 2.9 µM
Cn1cnnc1Sc1ccc(/C=C/c2nc3ccccc3[nH]2)cc1[N+](=O)[O-]	3.92	IC50 (PBLUC_HILL_SLOPE 13.5, PBLUC_R_SQUARED 0.706, read-out: LUCIFERASE INFECTION ASSAY - IC50): 3.33 µM
CNC(=O)c1ccc(CN(Cc2ccc(SC)cc2)Cc2ccco2)cc1	0.736	IC50 (PBLUC_HILL_SLOPE 13.4, PBLUC_R_SQUARED 0.501, read-out: LUCIFERASE INFECTION ASSAY - IC50): 0.624 µM
c1coc(CC2CCCC2Nc2c3ccccc3nc3ccccc23)c1 (configuration not stated)	1.22	IC50 (PBLUC_HILL_SLOPE 13.4, PBLUC_R_SQUARED 0.585, read-out: LUCIFERASE INFECTION ASSAY - IC50): 1.04 µM
O=C(Cc1ccc(-c2ccccc2)cc1)Nc1nc(-c2ccccn2)cs1	> 10	IC50 (PBLUC_HILL_SLOPE 13.5, PBLUC_R_SQUARED 0.18, read-out: LUCIFERASE INFECTION ASSAY - IC50): 9.2 µM
Cc1ccc(C(C)CCN2CCC3(CC2)C(=O)N(CCCc2ccncc2)C(=O)N3CCC(C)C)o1 (configuration not stated)	> 6.67	IC50 (PBLUC_HILL_SLOPE 13.4, PBLUC_R_SQUARED 0.376, read-out: LUCIFERASE INFECTION ASSAY - IC50): 6.51 µM
CCC(C)NC(=O)c1c(NC(=O)c2ccccc2)nc2ccc(C)cn12 (configuration not stated)	> 9.42	IC50 (PBLUC_HILL_SLOPE 13.5, PBLUC_R_SQUARED 0.225, read-out: LUCIFERASE INFECTION ASSAY - IC50): 8.13 µM
Cc1cc(C)cc(NC(=O)C(NCC(C(C)C)N2CCOCC2)c2ccccc2)c1 (configuration not stated)	> 10	IC50 (PBLUC_HILL_SLOPE 13.4, 2.47, PBLUC_R_SQUARED 0.208, 0.834, read-out: LUCIFERASE INFECTION ASSAY - IC50): 6.61 µM
O=C(Nc1nc2ccccn2c1C(=O)NC1CCCCC1)c1ccc(F)c(F)c1	> 8.28	IC50 (PBLUC_HILL_SLOPE 13.4, PBLUC_R_SQUARED 0.0564, read-out: LUCIFERASE INFECTION ASSAY - IC50): 7.37 µM
Cc1cccc(C2CC(=O)Nc3[nH]c(-c4ccccc4)nc(=O)c32)c1 (configuration not stated)	> 9.96	IC50 (PBLUC_HILL_SLOPE 13.4, PBLUC_R_SQUARED 0.0843, read-out: LUCIFERASE INFECTION ASSAY - IC50): 9.49 µM
N#CC(C#N)=NNc1cc(F)c(Br)cc1F	4.79	IC50 (PBLUC_HILL_SLOPE 13.7, PBLUC_R_SQUARED 0.287, read-out: LUCIFERASE INFECTION ASSAY - IC50): 4.08 µM

SMILES	IC90 [µM]	further results
CO/N=C/NC(=O)/C(C#N)=C/N(C)C	> 16.8	IC50 (PBLUC_HILL_SLOPE 13.3, PBLUC_R_SQUARED 0.155, read-out: LUCIFERASE INFECTION ASSAY - IC50): 14.6 µM
COc1cc(OC)cc(C(=O)Nc2nc3ccccn3c2C(=O)NC2CCCC2)c1	3.15	IC50 (PBLUC_HILL_SLOPE 13.4, PBLUC_R_SQUARED 0.275, read-out: LUCIFERASE INFECTION ASSAY - IC50): 2.68 µM
O=C(NCCSCc1ccc(Cl)cc1Cl)c1ccc(Cl)cc1	> 8.81	IC50 (PBLUC_HILL_SLOPE 13.4, PBLUC_R_SQUARED 0.244, read-out: LUCIFERASE INFECTION ASSAY - IC50): 7.79 µM
CCCNC(=O)C(C)NC(=O)Nc1c(C)cccc1CC (configuration not stated)	> 10	IC50 (PBLUC_HILL_SLOPE 13.4, PBLUC_R_SQUARED 0.0478, read-out: LUCIFERASE INFECTION ASSAY - IC50): > 10 µM
CN(CC(=O)Nc1ccc(Cl)c(S(=O)(=O)N2CCCCC2)c1)C1CCc2ccccc21 (configuration not stated)	> 10	IC50 (PBLUC_HILL_SLOPE 13.6, PBLUC_R_SQUARED 0.21, read-out: LUCIFERASE INFECTION ASSAY - IC50): 9.96 µM
O=S(=O)(NCC(Sc1nnc(Nc2ccccc2)s1)c1ccccc1)c1ccc(Cl)cc1 (configuration not stated)	> 10	IC50 (PBLUC_HILL_SLOPE 13.6, PBLUC_R_SQUARED 0.626, read-out: LUCIFERASE INFECTION ASSAY - IC50): 9.35 µM
O=C(Nc1cccc(/C=C/c2ccc3cccc(O)c3n2)c1)C(F)(F)F	> 10	IC50 (PBLUC_HILL_SLOPE 13.5, PBLUC_R_SQUARED 0.34, read-out: LUCIFERASE INFECTION ASSAY - IC50): 8.84 µM
CCC(C)(C)C1CCC2(CC1)NC(N)=Nc1nc3ccccc3n12 (configuration not stated)	3.31	IC50 (PBLUC_HILL_SLOPE 13.4, PBLUC_R_SQUARED 0.322, read-out: LUCIFERASE INFECTION ASSAY - IC50): 2.81 µM
CCCc1c(Cc2c(F)cccc2Cl)c(=O)oc2cc(OC(=O)COC)ccc12	3.31	IC50 (PBLUC_HILL_SLOPE 13.6, PBLUC_R_SQUARED 0.599, read-out: LUCIFERASE INFECTION ASSAY - IC50): 2.82 µM
CN(C)C(=O)CNC(=O)c1cc(-c2ccccc2)nc2c1cnn2Cc1ccccc1Cl	> 10	IC50 (PBLUC_HILL_SLOPE 13.5, PBLUC_R_SQUARED 0.27, read-out: LUCIFERASE INFECTION ASSAY - IC50): 8.61 µM
COc1ccc(C(N)c2csc(NC(=O)Nc3ccccc3C(C)C)n2)cc1 (configuration not stated)	3.02	IC50 (PBLUC_HILL_SLOPE 13.4, PBLUC_R_SQUARED 0.332, read-out: LUCIFERASE INFECTION ASSAY - IC50): 2.57 µM
COc1ccccc1C(=O)Nc1nonc1-c1ccc2c(c1)CCCC2	> 9.45	IC50 (PBLUC_HILL_SLOPE 13.6, PBLUC_R_SQUARED 0.311, read-out: LUCIFERASE INFECTION ASSAY - IC50): 9.15 µM
OC(COc1ccccc1F)CN1CCN(Cc2csc3ccccc23)CC1 (configuration not stated)	> 10	IC50 (PBLUC_HILL_SLOPE 13.5, PBLUC_R_SQUARED 0.264, read-out: LUCIFERASE INFECTION ASSAY - IC50): > 10 µM
CC(C)Sc1nnc(CSc2nc3ccccc3s2)n1C	3.94	IC50 (PBLUC_HILL_SLOPE 13.4, PBLUC_R_SQUARED 0.563, read-out: LUCIFERASE INFECTION ASSAY - IC50): 3.35 µM
COCCCn1c(Sc2ncc(Br)cc2[N+](=O)[O-])nnc1-c1ccc(C(C)(C)C)cc1	> 6.52	IC50 (PBLUC_HILL_SLOPE 13.2, PBLUC_R_SQUARED 0.0327, read-out: LUCIFERASE INFECTION ASSAY - IC50): > 6.52 µM
Cc1cc2c(cc1C)C(NC(C)c1ccccc1)=NC(C)(C)C2 (configuration not stated)	4.29	IC50 (PBLUC_HILL_SLOPE 13.3, PBLUC_R_SQUARED 0.718, read-out: LUCIFERASE INFECTION ASSAY - IC50): 3.64 µM
O=c1cc(CSc2nc3ccccc3s2)[nH]c2nc3ccccc3n12	3.5	IC50 (PBLUC_HILL_SLOPE 13.4, PBLUC_R_SQUARED 0.218, read-out: LUCIFERASE INFECTION ASSAY - IC50): 2.97 µM
COc1ccc(S(=O)(=O)N2CCc3ccccc32)cc1C(=O)Oc1c(Cl)cc(Cl)c2ccc(C)nc12	> 10	IC50 (PBLUC_HILL_SLOPE 13.5, PBLUC_R_SQUARED 0.253, read-out: LUCIFERASE INFECTION ASSAY - IC50): > 10 µM
COc1ccc(-c2cnc3cnc(-c4cccs4)cn23)cn1	4.6	IC50 (PBLUC_HILL_SLOPE 13.2, PBLUC_R_SQUARED 0.556, read-out: LUCIFERASE INFECTION ASSAY - IC50): 3.89 µM
O=C1C=CC(=O)N1c1cccc(Br)c1	> 13.1	IC50 (PBLUC_HILL_SLOPE 13.6, PBLUC_R_SQUARED 0.314, read-out: LUCIFERASE INFECTION ASSAY - IC50): 12.9 µM
